Experimental data reported in ChEMBL document CHEMBL1121939, “1-beta-D-arabinofuranosyl-1H-imidazo[4,5-c]pyridine (ara-3-deazaadenine)” (J Med Chem, 1982).

What was measured:
Adenosylhomocysteinase = Adenosylhomocysteinase (Homo sapiens, UniProt P23526); experiment: Inhibitory activity against S-adenosyl-homocysteine hydrolase; set-up: species or system herpes simplex virus; settings: read-out: I50
L929 = experiment: Inhibitory activity against herpes simplex virus type 1 grown in L929 cells; format: functional, Mus musculus

Sequence of Adenosylhomocysteinase (P23526 whole entry): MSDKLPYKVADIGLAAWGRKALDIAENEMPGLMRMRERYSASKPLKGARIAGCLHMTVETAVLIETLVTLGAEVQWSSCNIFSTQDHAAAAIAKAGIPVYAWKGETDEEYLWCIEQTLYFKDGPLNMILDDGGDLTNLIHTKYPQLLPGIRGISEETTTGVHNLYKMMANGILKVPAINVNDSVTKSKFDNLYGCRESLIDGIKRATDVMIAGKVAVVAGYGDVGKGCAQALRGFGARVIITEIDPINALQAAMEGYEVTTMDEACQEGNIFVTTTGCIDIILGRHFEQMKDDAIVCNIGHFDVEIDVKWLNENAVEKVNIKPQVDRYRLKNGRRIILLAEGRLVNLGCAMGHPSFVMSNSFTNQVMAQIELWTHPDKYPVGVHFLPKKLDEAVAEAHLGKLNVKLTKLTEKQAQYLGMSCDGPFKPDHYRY

Row | Compound | IC50 (Adenosylhomocysteinase) [µM] | MED50 (L929) [µg/mL] | Virus rating (L929)
1 | Nc1nccc2c1ncn2[C@@H]1O[C@H](CO)[C@@H](O)[C@H]1O | 4 | – | –
2 | Nc1nccc2c1ncn2[C@@H]1O[C@H](CO)[C@@H](O)[C@@H]1O | 100 | 189 | 0.8
3 | Nc1ncnc2c1ncn2[C@@H]1O[C@H](CO)[C@@H](O)[C@@H]1O [VIDARABINE] | – | 0.8 | 3.7
